What was measured:
Hepatotoxicity [1] = system: Hepatotoxicity;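 for HepSE cholecystitis: Cholecystitis-related hepatic side effect score drawn from the DILIps (drug-induced liver injury prediction) training data set; call rule not given here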;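 for HepSE cirrhosis: cirrhosis hepatic side effect score taken from the DILIps (drug-induced liver injury prediction) training set; call rule not given here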;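 for HepSE hepatic necrosis: score of hepatic side effects for hepatic necrosis, drawn from the training data of DILIps, a prediction system for drug-induced liver injury; call rule not given here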;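 for HepSE jaundice: Jaundice-related hepatic side-effect score drawn from the training data of the DILIps (drug-induced liver injury prediction system); call rule not given here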;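 for HepSE liver fatty: hepatic side effect score for fatty liver, taken from the DILIps training set for predicting drug-induced liver injury; call rule not given here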;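 for HepSE liver function tests abnormal: hepatic side effect score taken from the DILIps (drug-induced liver injury prediction system) training data, here covering abnormal liver function test findings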
Hepatotoxicity [2] = system: Hepatotoxicity; remark: listed apart in the source;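 for HepSE cholecystitis: Cholecystitis-related hepatic side effect score drawn from the DILIps (drug-induced liver injury prediction) training data set; call rule not given here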;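 for HepSE cirrhosis: cirrhosis hepatic side effect score taken from the DILIps (drug-induced liver injury prediction) training set; call rule not given here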;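 for HepSE hepatic necrosis: score of hepatic side effects for hepatic necrosis, drawn from the training data of DILIps, a prediction system for drug-induced liver injury; call rule not given here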;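 for HepSE jaundice: Jaundice-related hepatic side-effect score drawn from the training data of the DILIps (drug-induced liver injury prediction system); call rule not given here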;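 for HepSE liver fatty: hepatic side effect score for fatty liver, taken from the DILIps training set for predicting drug-induced liver injury; call rule not given here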;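 for HepSE liver function tests abnormal: hepatic side effect score taken from the DILIps (drug-induced liver injury prediction system) training data, here covering abnormal liver function test findings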
Hepatotoxicity [3] = system: Hepatotoxicity; remark: listed apart in the source;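 for HepSE cholecystitis: Cholecystitis-related hepatic side effect score drawn from the DILIps (drug-induced liver injury prediction) training data set; call rule not given here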;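 for HepSE hepatic necrosis: score of hepatic side effects for hepatic necrosis, drawn from the training data of DILIps, a prediction system for drug-induced liver injury; call rule not given here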;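 for HepSE jaundice: Jaundice-related hepatic side-effect score drawn from the training data of the DILIps (drug-induced liver injury prediction system); call rule not given here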;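 for HepSE liver fatty: hepatic side effect score for fatty liver, taken from the DILIps training set for predicting drug-induced liver injury; call rule not given here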;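 for HepSE liver function tests abnormal: hepatic side effect score taken from the DILIps (drug-induced liver injury prediction system) training data, here covering abnormal liver function test findings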
Hepatotoxicity [4] = system: Hepatotoxicity; remark: listed apart in the source;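 for HepSE cholecystitis: Cholecystitis-related hepatic side effect score drawn from the DILIps (drug-induced liver injury prediction) training data set; call rule not given here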;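 for HepSE hepatic necrosis: score of hepatic side effects for hepatic necrosis, drawn from the training data of DILIps, a prediction system for drug-induced liver injury; call rule not given here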;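 for HepSE jaundice: Jaundice-related hepatic side-effect score drawn from the training data of the DILIps (drug-induced liver injury prediction system); call rule not given here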;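 for HepSE liver fatty: hepatic side effect score for fatty liver, taken from the DILIps training set for predicting drug-induced liver injury; call rule not given here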;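 for HepSE liver function tests abnormal: hepatic side effect score taken from the DILIps (drug-induced liver injury prediction system) training data, here covering abnormal liver function test findings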
Hepatotoxicity [5] = system: Hepatotoxicity; remark: listed apart in the source
Hepatotoxicity [6] = system: Hepatotoxicity; remark: listed apart in the source
Hepatotoxicity [7] = system: Hepatotoxicity; remark: listed apart in the source
Hepatotoxicity [8] = system: Hepatotoxicity; remark: listed apart in the source
Hepatotoxicity [9] = system: Hepatotoxicity; remark: listed apart in the source
Hepatotoxicity [10] = system: Hepatotoxicity; remark: listed apart in the source
Hepatotoxicity [11] = system: Hepatotoxicity; remark: listed apart in the source
Hepatotoxicity [12] = system: Hepatotoxicity; remark: listed apart in the source
Hepatotoxicity [13] = system: Hepatotoxicity; remark: listed apart in the source
Hepatotoxicity [14] = system: Hepatotoxicity; remark: listed apart in the source

Row | SMILES | HepSE_liver function tests abnormal (Hepatotoxicity [1]) | HepSE_liver fatty (Hepatotoxicity [2]) | HepSE_cholecystitis (Hepatotoxicity [3]) | HepSE_hepatic necrosis (Hepatotoxicity [4]) | HepSE_cholelithiasis (Hepatotoxicity [5]) | HepSE_jaundice (Hepatotoxicity [6]) | HepSE_cirrhosis (Hepatotoxicity [7]) | HepSE_elevated liver function tests (Hepatotoxicity [8]) | HepSE_hepatitis (Hepatotoxicity [9]) | HepSE_bilirubinemia (Hepatotoxicity [10]) | HepSE_liver disease (Hepatotoxicity [11]) | HepSE_hepatomegaly (Hepatotoxicity [12]) | HepSE_Combined Scores (Hepatotoxicity [13]) | HepSE_hepatic failure (Hepatotoxicity [14]) | also measured
1 | C[C@H]1O[C@@H](O[C@H]2[C@@H](O)C[C@H](O[C@H]3[C@@H](O)C[C@H](O[C@H]4CC[C@@]5(C)[C@H](CC[C@@H]6[C@@H]5C[C@@H](O)[C@]5(C)[C@@H](C7=CC(=O)OC7)CC[C@]65O)C4)O[C@@H]3C)O[C@@H]2C)C[C@H](O)[C@@H]1O [DIGOXIN] | 0 | 0 | 0 | 0 | 0 | 0 | 0 | 0 | 0 | 0 | 0 | 0 | 0 | 0 | 
2 | CN1C[C@H](C(=O)N[C@]2(C)O[C@@]3(O)[C@@H]4CCCN4C(=O)[C@H](Cc4ccccc4)N3C2=O)C[C@@H]2c3cccc4[nH]cc(c34)C[C@H]21 [DIHYDROERGOTAMINE] | 0 | 0 | 0 | 0 | 0 | 0 | 0 | 0 | 0 | 0 | 0 | 0 | 0 | 0 | 
3 | COc1ccc([C@@H]2Sc3ccccc3N(CCN(C)C)C(=O)[C@@H]2OC(C)=O)cc1 [DILTIAZEM] | 0 | 0 | 0 | 0 | 0 | 0 | 0 | 0 | 0 | 0 | 0 | 0 | 0 | 0 | 
4 | OCC(S)CS (stereo not drawn) [DIMERCAPROL] |  |  |  |  |  |  |  |  |  |  |  |  |  |  | HepSE_liver function tests abnormal (Hepatotoxicity [1]; Liver): 0; HepSE_liver fatty (Hepatotoxicity [2]; Liver): 0; HepSE_cholecystitis (Hepatotoxicity [3]; Liver): 0; HepSE_hepatic necrosis (Hepatotoxicity [4]; Liver): 0; HepSE_cholelithiasis (Hepatotoxicity [5]; Liver): 0; HepSE_jaundice (Hepatotoxicity [6]; Liver): 0; HepSE_cirrhosis (Hepatotoxicity [7]; Liver): 0; HepSE_elevated liver function tests (Hepatotoxicity [8]; Liver): 0; HepSE_hepatitis (Hepatotoxicity [9]; Liver): 0; HepSE_bilirubinemia (Hepatotoxicity [10]; Liver): 0; HepSE_liver disease (Hepatotoxicity [11]; Liver): 0; HepSE_hepatomegaly (Hepatotoxicity [12]; Liver): 0; HepSE_Combined Scores (Hepatotoxicity [13]; Liver): 0; HepSE_hepatic failure (Hepatotoxicity [14]; Liver): 0
5 | CCCCC[C@H](O)/C=C/[C@H]1[C@H](O)CC(=O)[C@@H]1C/C=C\CCCC(=O)O [DINOPROSTONE] | 0 | 0 | 0 | 0 | 0 | 0 | 0 | 0 | 0 | 0 | 0 | 0 | 0 | 0 | 
6 | CNCC(O)c1ccc(OC(=O)C(C)(C)C)c(OC(=O)C(C)(C)C)c1 (stereo not drawn) [DIPIVEFRIN] | 0 | 0 | 0 | 0 | 0 | 0 | 0 | 0 | 0 | 0 | 0 | 0 | 0 | 0 | 
7 | CC(C)N(CCC(C(N)=O)(c1ccccc1)c1ccccn1)C(C)C (stereo not drawn) [DISOPYRAMIDE] | 0 | 0 | 0 | 0 | 0 | 1 | 0 | 0 | 0 | 0 | 0 | 0 | 1 | 0 | 
8 | CC(CCc1ccc(O)cc1)NCCc1ccc(O)c(O)c1 (stereo not drawn) [DOBUTAMINE] | 0 | 0 | 0 | 0 | 0 | 0 | 0 | 0 | 0 | 0 | 0 | 0 | 0 | 0 | 
9 | CC(=O)O[C@@]12CO[C@@H]1C[C@H](O)[C@@]1(C)C(=O)[C@H](O)C3=C(C)[C@@H](OC(=O)[C@H](O)[C@@H](NC(=O)OC(C)(C)C)c4ccccc4)C[C@@](O)([C@@H](OC(=O)c4ccccc4)[C@H]21)C3(C)C.O.O.O [DOCETAXEL] | 1 | 0 | 0 | 0 | 0 | 1 | 0 | 1 | 1 | 1 | 0 | 0 | 6 | 1 | 
10 | CCCCCCCCCCCCCCCCCCCCCCO [DOCOSANOL] | 0 | 0 | 0 | 0 | 0 | 0 | 0 | 0 | 0 | 0 | 0 | 0 | 0 | 0 | 
11 | CN(CCOc1ccc(NS(C)(=O)=O)cc1)CCc1ccc(NS(C)(=O)=O)cc1 [DOFETILIDE] | 0 | 0 | 0 | 0 | 0 | 0 | 0 | 0 | 0 | 0 | 0 | 0 | 0 | 0 | 
12 | O=C(O[C@@H]1C[C@@H]2C[C@H]3C[C@H](C1)N2CC3=O)c1c[nH]c2ccccc12 [DOLASETRON] | 0 | 0 | 0 | 0 | 0 | 0 | 0 | 0 | 0 | 1 | 1 | 0 | 2 | 0 | 
13 | O=c1[nH]c2ccccc2n1CCCN1CCC(n2c(=O)[nH]c3cc(Cl)ccc32)CC1 [DOMPERIDONE] | 0 | 0 | 0 | 0 | 0 | 0 | 0 | 0 | 0 | 0 | 0 | 0 | 0 | 0 | 
14 | COc1cc2c(cc1OC)C(=O)C(CC1CCN(Cc3ccccc3)CC1)C2 (stereo not drawn) [DONEPEZIL] | 1 | 0 | 1 | 0 | 1 | 1 | 0 | 0 | 1 | 1 | 0 | 0 | 6 | 0 | 
15 | NCCc1ccc(O)c(O)c1 [DOPAMINE] |  |  |  |  |  |  |  |  |  |  |  |  |  |  | HepSE_liver function tests abnormal (Hepatotoxicity [1]; Liver): 0; HepSE_liver fatty (Hepatotoxicity [2]; Liver): 0; HepSE_cholecystitis (Hepatotoxicity [3]; Liver): 0; HepSE_hepatic necrosis (Hepatotoxicity [4]; Liver): 0; HepSE_cholelithiasis (Hepatotoxicity [5]; Liver): 0; HepSE_jaundice (Hepatotoxicity [6]; Liver): 0; HepSE_cirrhosis (Hepatotoxicity [7]; Liver): 0; HepSE_elevated liver function tests (Hepatotoxicity [8]; Liver): 0; HepSE_hepatitis (Hepatotoxicity [9]; Liver): 0; HepSE_bilirubinemia (Hepatotoxicity [10]; Liver): 0; HepSE_liver disease (Hepatotoxicity [11]; Liver): 0; HepSE_hepatomegaly (Hepatotoxicity [12]; Liver): 0; HepSE_Combined Scores (Hepatotoxicity [13]; Liver): 0; HepSE_hepatic failure (Hepatotoxicity [14]; Liver): 0
16 | CCN[C@H]1C[C@H](C)S(=O)(=O)c2sc(S(N)(=O)=O)cc21 [DORZOLAMIDE] | 0 | 0 | 0 | 0 | 0 | 0 | 0 | 0 | 0 | 0 | 0 | 1 | 1 | 0 | 
17 | COc1cc(CC2c3c(cc(OC)c(OC)c3OC)CC[N+]2(C)CCCOC(=O)CCC(=O)OCCC[N+]2(C)CCc3cc(OC)c(OC)c(OC)c3C2Cc2cc(OC)c(OC)c(OC)c2)cc(OC)c1OC (stereo not drawn) [DOXACURIUM] | 0 | 0 | 0 | 0 | 0 | 0 | 0 | 0 | 0 | 0 | 0 | 0 | 0 | 0 | 

From ChEMBL document CHEMBL1909294, “Translating clinical findings into knowledge in drug safety evaluation--drug induced liver injury prediction system (DILIps)” (PLoS Comput Biol, 2011)
